Test results from patent US6818631B1, “Fungicidal pyrimidine derivatives” (Nippon Soda Co. Ltd., priority 2003, dated 2004).

Row | melting point | Compound
1 | 142 to 150 °C (dec.) | Fc1c(-n2ccnc2)nc(-n2ccnc2)nc1C(F)(F)F [Example 19, 5-Fluoro-2,4-diimidazol-1-yl-6-trifluoromethylpyrimidine]
2 | 128 to 129 °C | C#CCOc1nc(-n2ccnc2)c(I)c(C(F)(F)F)n1 [Example 13, 4-Imidazol-1-yl-5-iodo-2-prop-2-ynyloxy-6-trifluoromethyl-pyrimidine]
3 | 196 to 200 °C | CSc1nc(-c2nn[nH]n2)c(I)c(C(F)(F)F)n1 [Example 15, 5-Iodo-2-methylthio-4-(2H-tetrazol-5-yl)-6-trifluoromethyl-pyrimidine]
4 | 121 to 122 °C | C#Cc1c(-n2ccnc2)nc(C)nc1C(F)(F)F [Example 18, 5-Ethynyl-4-imidazol-1-yl-2-methyl-6-trifluoromethylpyrimidine]
5 | 195 to 197 °C | O=C1CCCN1c1nc(-n2ccnc2)c(I)c(C(F)(F)F)n1 [Example 14, 1-(4-Imidazol-1-yl-5-iodo-6-trifluoromethylpyrimidin-2-yl)-pyrrolidin-2-one]
